# Data from patent publication US6133279A, “Therapeutic agents for renal diseases and organ preservatives” (Chugai Seiyaku Kabushiki Kaisha, priority 1996, dated 2000).
# Where two headings read alike, the source gives them in different places.
# Experiments:
# [1] = test system: porcine kidney-derived LLC-PK1 cells; experiment: Protective effect against oxidized LDL-induced injury of porcine kidney-derived LLC-PK1 cells (1); format: cell-based; settings: Sus scrofa, LLC-PK1, 6 h, mean ± standard deviation, read-out: Cytoprotection rate (%)
# Protocol: For the purpose of evaluating in vitro cytoprotective effect of the compounds of the present invention, a cytoprotective study was performed using porcine kidney-derived LLC-PK1 cells (ATCC-CRL-13921) injured by oxidized low-density lipoprotein (oxidized LDL).
# Oxidized LDL was prepared by incubating 1 mg/ml of rabbit LDL in PBS (-) in the presence of 10 μM CuSO4 at 37° C. for 24 hours. Cell culture was carried out by plating 1.25×10^4 cells/250 μl/well on a 48-well plate containing M199 medium containing 3% FBS. Test compounds were dissolved or suspended in ethanol and added to the wells in an amount of 1.25 μl/well to a concentration of 0.1, 1 or 10 μM in each well. After 16 hours or immediately after the addition of the compounds, oxidized LDL was added to the wells. Probucol, α-tocopherol and Trolox which is a water-soluble analogue of α-tocopherol were used as reference control compounds. Oxidized LDL was diluted twice with saline and then added to the wells in an amount of 62.5 μl/well to a concentration of 100 μg/ml and the cells were cultured for 6 hours after addition of the oxidized LDL. Then, 162.5 μl/well of the culture medium were collected and measured for the lactate dehydrogenase (LDH) level (LD-L: SIGNA DIAGNOSTICS) having leaked into the medium.
# The magnitude of cytoprotective effect was expressed as the cytoprotection rate which was determined by calculating the data assuming that the magnitude in wells containing oxidized LDL is 0% and that the magnitude in wells containing saline is 100%.
# [2] = test system: puromycin-induced nephrosis model; experiment: Puromycin-induced nephrosis (2), postadministration (in vivo); parameters: species or system rat (male SD rats); settings: 200 mg/kg oral once a day from the day following puromycin; for Creatinine: control 0.82 ± 0.07; for Urine nitrogen: control 30.74 ± 10.95; for Creatinine clearance: control 824 ± 108
# Protocol: Effect of the compounds of the present invention on an in vivo renal disease was studied using a puromycin-induced nephrosis model. A puromycin-induced renal failure model was prepared from rats in groups of 5-8 each (6 week-old male SD rats) fed with high-fat diet. High-fat diet feeding was started by free access to high-fat diet (cholesterol level 1.25%) from 7 days before puromycin treatment. Puromycin (puromycin aminonucleoside, SIGMA Chemical Co.) treatment was performed by intraperitoneal administration at a dose of 100 mg/kg. Test compounds were administered as a solution in soybean oil via oral route (4 ml/kg). Control group was orally administered soybean oil alone. Probucol and a water-soluble α-tocopherol analogue, Trolox, were used as reference control compounds. The compounds were orally administered once a day from the following day of the puromycin treatment. Renal functions were determined by using urine and blood samples. The volume of urine, urea nitrogen level and creatinine levels of serum and urine were evaluated to calculate creatinine clearance as an indication of renal functions.
# [3] = literature; cited from earlier work
# [4] = compound added 16 hours before adding oxidized LDL
# [5] = compound added immediately before adding oxidized LDL
Structure (SMILES),"inhibition at 0.1 µM [1, 4] [%]","inhibition at 0.1 µM [1, 5] [%]","inhibition at 1 µM [1, 4] [%]","inhibition at 1 µM [1, 5] [%]","inhibition at 10 µM [1, 4] [%]","inhibition at 10 µM [1, 5] [%]",Creatinine [2] [mg/dL],Urine nitrogen [2] [mg/dL],Creatinine clearance [2] [mL/day],effect on renal disease models / renal functions (in words) [3]
"CC(C)(Sc1cc(C(C)(C)C)c(O)c(C(C)(C)C)c1)Sc1cc(C(C)(C)C)c(O)c(C(C)(C)C)c1 [Probucol, probucol, reference compound]",22.5 ± 15.1,-1.8 ± 9.7,36.4 ± 13.3,0.3,99.7 ± 1.1,17 ± 7.8,0.98 ± 0.13,37.53 ± 7.53,838 ± 187,–
"CC(C)(C)c1cc2c(c(C(C)(C)C)c1O)CC1(CCCCCC1)O2 [Example 20, 4,6-Di-t-butyl-5-hydroxy-2,3-dihydrobenzofuran-2-spiro-1'-cycloheptane]",-11.3 ± 8.5,-15.8 ± 8,98.6 ± 1.2,99.9,106 ± 1.2,102 ± 4.7,0.61 ± 0.08,25.40 ± 10.28,1144 ± 172,–
"CC(C)(C)c1cc2c(c(C(C)(C)C)c1O)CC(Cc1ccccc1)(Cc1ccccc1)O2 [Example 16, 4,6-Di-t-butyl-2,2-dibenzyl-5-hydroxy-2,3-dihydrobenzofuran]",12 ± 7.5,-36.7 ± 6.6,94.5 ± 4.9,74.4,98.3 ± 0.3,99.6 ± 0.1,0.73 ± 0.06,31.82 ± 10.84,925,–
"Cc1c(C)c2c(c(C)c1O)CCC(C)(C(=O)O)O2 (stereo not shown) [Trolox, reference compound]",0.4 ± 1.3,0,6.4 ± 10.6,-7.1,17.5 ± 16.9,-4.9 ± 6.3,0.96 ± 0.14,31.91 ± 11.93,660,–
"Cc1c(C)c2c(c(C)c1O)CCC(C)(CCCC(C)CCCC(C)CCCC(C)C)O2 (stereo not drawn) [α-tocopherol, reference compound]",7.2 ± 2.2,-2.8,72.1 ± 13.8,8.2 ± 5.7,98.9 ± 1,2.7 ± 2.3,–,–,–,its effect is not sufficient
